Assay results taken from the supplement of paper PMC10331698.
± gives the standard deviation of the averaged measurements.

Assays:
Assay in all cases: level (log10 ratio to DMSO vehicle control); higher = higher biomarker level / cell amount than vehicle control
Settings in all cases: in DMSO
[1] = compound: C=C(C)C(=O)OCCC(F)(F)C(F)(F)C(F)(F)C(F)(F)C(F)(C(F)(F)F)C(F)(F)F [(Perfluoro-5-methylhexyl)ethyl 2-methylprop-2-enoate]
Protocol: (§1)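 BioMAP Diversity Plus panel of 12 human primary cell co-culture systems (3C, 4H, LPS, SAg, BT, BF4T, BE3C, CASM3C, HDF3CGF, KF3CT, MyoF, Mphg). Compounds were added 1 h before stimulation and left for 24 h (MyoF 48 h; BT 72 h for soluble read-outs or 6 d for IgG). Biomarkers were read by ELISA, cytotoxicity by SRB, PBMC viability and proliferation by Alamar Blue. Each well value was divided by the mean of 8 DMSO control wells on the same plate and log10 transformed; duplicate blinded samples were tested at 4 concentrations.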

Perfluoro-1-iodohexane = compound: FC(F)(F)C(F)(F)C(F)(F)C(F)(F)C(F)(F)C(F)(F)I [Perfluoro-1-iodohexane]
Protocol: as §1

[2] = compound: FC(F)(F)C(F)(F)C(F)(F)C(F)(F)C(F)(F)CCI [1-Iodo-1H,1H,2H,2H-perfluoroheptane]
Protocol: as §1

Pentafluoropropionamide = compound: NC(=O)C(F)(F)C(F)(F)F [Pentafluoropropionamide]
Protocol: as §1

[3] = compound: O=C(O)C(F)(F)C(F)(F)C(F)(F)C(F)(F)C(F)(F)C(F)(F)C(F)(F)C(F)F [9-H-Perfluorononanoic acid]
Protocol: as §1

Perfluorobutanoic acid = compound: O=C(O)C(F)(F)C(F)(F)C(F)(F)F [Perfluorobutanoic acid]
Protocol: as §1

[4] = compound: O=C(O)C(F)(F)C(F)(F)C(F)(F)OC(F)(C(F)(F)F)C(F)(F)F [Perfluoro-4-isopropoxybutanoic acid]
Protocol: as §1

Test System	level (log10) ([1]; 6700 nM)	level (log10) ([1]; 20000 nM)	level (log10) (Perfluoro-1-iodohexane; 6700 nM)	level (log10) (Perfluoro-1-iodohexane; 20000 nM)	level (log10) (Perfluoro-1-iodohexane; 60000 nM)	level (log10) ([2]; 6700 nM)	level (log10) ([2]; 20000 nM)	level (log10) ([2]; 60000 nM)	level (log10) (Pentafluoropropionamide; 6700 nM)	level (log10) (Pentafluoropropionamide; 20000 nM)	level (log10) (Pentafluoropropionamide; 60000 nM)	level (log10) ([3]; 6700 nM)	level (log10) ([3]; 20000 nM)	level (log10) ([3]; 60000 nM)	level (log10) (Perfluorobutanoic acid; 6700 nM)	level (log10) (Perfluorobutanoic acid; 20000 nM)	level (log10) (Perfluorobutanoic acid; 60000 nM)	level (log10) ([4]; 6700 nM)	level (log10) ([4]; 20000 nM)	level (log10) ([4]; 60000 nM)
BF4T:CD106/VCAM-1	-0.012 ± 0.02	0.0325 ± 0.036	-0.0055 ± 0.0035	-0.0215 ± 0.0035	-0.0745 ± 0.019	-0.029 ± 0.0071	-0.0615 ± 0.0064	-0.11 ± 0.012	-0.001 ± 0.018	-0.0045 ± 0.0021	-0.016 ± 0.0071	-0.0885 ± 0.049	-0.103 ± 0.058	-0.0625 ± 0.021	-0.0185 ± 0.029	0.0035 ± 0.028	0.028 ± 0.072	-0.042	-0.035 ± 0.02	-0.0065 ± 0.037
LPS:CXCL8/IL-8	0.006 ± 0.045	0.016 ± 0.047	-0.0045 ± 0.015	0.005	0.015 ± 0.017	0.0065 ± 0.03	0.0135 ± 0.005	0.0145 ± 0.0021	-0.009 ± 0.013	-0.0115 ± 0.00071	0.0285 ± 0.037	0.046 ± 0.047	0.102 ± 0.021	0.17 ± 0.033	-0.0055 ± 0.005	-0.0165 ± 0.00071	0.0095 ± 0.011	0.0515 ± 0.0021	0.0935 ± 0.035	0.134 ± 0.018
3C:CXCL8/IL-8	0.0105 ± 0.03	0.054 ± 0.086	-0.014 ± 0.064	-0.01 ± 0.065	0.0365 ± 0.079	0.011 ± 0.0085	0.0065 ± 0.016	0.051 ± 0.017	-0.026 ± 0.013	-0.028 ± 0.0099	0.002 ± 0.044	-0.0115 ± 0.011	0.015 ± 0.0057	0.0765 ± 0.005	0.001 ± 0.028	-0.0035 ± 0.0064	0.0205 ± 0.03	-0.0055 ± 0.015	0.007 ± 0.013	0.043 ± 0.034
BF4T:PAI-I	-0.01 ± 0.018	-0.023 ± 0.0057	-0.0095 ± 0.0035	-0.02 ± 0.0042	-0.006 ± 0.018	0.012 ± 0.014	0.005 ± 0.0014	0.0135 ± 0.016	-0.0005 ± 0.0035	-0.005 ± 0.016	0.0015 ± 0.011	-0.099 ± 0.0028	-0.0915 ± 0.0021	-0.114 ± 0.0099	-0.003 ± 0.0057	-0.0115 ± 0.0064	0.0025 ± 0.023	0.004 ± 0.0057	0.0125 ± 0.0035	0.0085 ± 0.018
BE3C:HLA-DR	-0.0115 ± 0.0078	-0.0045 ± 0.0078	-0.003 ± 0.0028	0.003 ± 0.0057	-0.009 ± 0.0028	-0.0055 ± 0.0035	-0.0105 ± 0.0035	-0.0215 ± 0.0078	-0.0115 ± 0.0078	0.0045 ± 0.0064	0.0055 ± 0.026	-0.102 ± 0.042	-0.14 ± 0.052	-0.15 ± 0.0014	-0.0085 ± 0.018	0.007 ± 0.0014	-0.027 ± 0.013	-0.0045 ± 0.025	-0.0045 ± 0.016	0.0105 ± 0.011
4H:CD106/VCAM-1	-0.012 ± 0.016	-0.0005 ± 0.005	0.013 ± 0.03	0.01 ± 0.034	0.014 ± 0.068	0.006 ± 0.051	0 ± 0.028	-0.0205 ± 0.026	-0.02	-0.011 ± 0.03	0.0015 ± 0.0092	0.005 ± 0.054	0.0095 ± 0.016	-0.001 ± 0.016	-0.0165 ± 0.0092	-0.021 ± 0.0042	-0.001 ± 0.013	0.0075 ± 0.011	-0.019 ± 0.0028	-0.011 ± 0.025
BF4T:CXCL8/IL-8	0.067 ± 0.037	0.035 ± 0.027	0.0175 ± 0.021	-0.009 ± 0.058	0.016 ± 0.058	0.0065 ± 0.016	0.0295 ± 0.018	0.0605 ± 0.011	0.019 ± 0.028	0.0175 ± 0.022	0.02 ± 0.02	0.0365 ± 0.021	0.038 ± 0.023	0.0565 ± 0.016	0.0005 ± 0.012	0.004 ± 0.0014	0.0095 ± 0.033	0.0025 ± 0.0064	0.0145 ± 0.005	0.0235 ± 0.028
LPS:CCL2/MCP-1	0.009 ± 0.021	0.0115 ± 0.028	-0.0025 ± 0.005	-0.009 ± 0.0014	0.0015 ± 0.032	-0.013 ± 0.013	-0.013 ± 0.021	-0.0045 ± 0.021	-0.0035 ± 0.011	-0.017 ± 0.0028	0.008 ± 0.04	-0.0165 ± 0.005	-0.0055 ± 0.0021	0.0405 ± 0.025	-0.011 ± 0.011	-0.01 ± 0.011	0.0085 ± 0.025	-0.0045 ± 0.016	0.022 ± 0.025	0.0725 ± 0.0035
SAg:Proliferation	0.011 ± 0.0085	0.009 ± 0.018	-0.031 ± 0.044	-0.055 ± 0.02	-0.0395 ± 0.04	-0.014 ± 0.035	-0.0145 ± 0.0064	-0.15 ± 0.054	0.0045 ± 0.016	0.0135 ± 0.022	0.045 ± 0.0028	0.052 ± 0.065	0.0735 ± 0.037	0.048 ± 0.095	-0.04 ± 0.0099	0.0325 ± 0.029	-0.0065 ± 0.039	-0.018 ± 0.0042	-0.007 ± 0.0028	0.0175 ± 0.04
BT:Secreted IgG	-0.0085 ± 0.044	-0.023 ± 0.0085	0.0195 ± 0.023	-0.0165 ± 0.043	-0.0315 ± 0.081	-0.006 ± 0.016	-0.002 ± 0.062	-0.0185 ± 0.08	0.0065 ± 0.039	-0.0075 ± 0.046	0.0155 ± 0.0064	0.038 ± 0.0071	-0.011 ± 0.031	0.0485 ± 0.019	0.017 ± 0.0028	-0.02 ± 0.035	0.0055 ± 0.022	-0.0115 ± 0.0035	-0.0005 ± 0.03	-0.059 ± 0.013
BT:B cell Proliferation	-0.027 ± 0.011	0.001 ± 0.017	-0.011 ± 0.054	-0.008 ± 0.011	-0.0135 ± 0.025	-0.0065 ± 0.049	0.0095 ± 0.015	-0.0815 ± 0.023	0.005 ± 0.057	-0.0215 ± 0.019	0.0205 ± 0.019	0.0245 ± 0.0021	0.0495 ± 0.00071	0.108 ± 0.0028	0.0085 ± 0.00071	-0.029 ± 0.014	0.002 ± 0.0042	-0.002 ± 0.0071	0.0275 ± 0.0092	0.065 ± 0.016
BT:sIL-17F	0.004 ± 0.15	-0.0015 ± 0.0092	0.0035 ± 0.015	0.041 ± 0.12	0.0815 ± 0.061	-0.0855 ± 0.011	0.0525 ± 0.033	-0.0455 ± 0.16	-0.02 ± 0.085	-0.03	0.0275 ± 0.0064	0.0055 ± 0.0064	0.0945 ± 0.035	0.031 ± 0.0085	0.081 ± 0.035	0.065 ± 0.0014	-0.035 ± 0.024	-0.0935 ± 0.005	-0.092 ± 0.04	-0.063 ± 0.045
3C:Proliferation	0.004 ± 0.052	-0.0305 ± 0.0021	-0.0215 ± 0.0064	-0.0205 ± 0.013	-0.041 ± 0.041	0.001 ± 0.027	-0.0465 ± 0.03	-0.163 ± 0.052	-0.0095 ± 0.05	-0.0165 ± 0.0064	-0.0115 ± 0.029	-0.013 ± 0.017	0.004 ± 0.037	-0.023 ± 0.031	-0.0225 ± 0.084	-0.02 ± 0.061	0.024 ± 0.042	-0.0195 ± 0.05	0.002 ± 0.098	-0.0325 ± 0.046
4H:CCL26/Eotaxin-3	0.042 ± 0.058	0.039 ± 0.02	0.014 ± 0.013	0.016 ± 0.017	0.016 ± 0.021	0.007 ± 0.017	0 ± 0.014	-0.009	-0.001 ± 0.013	-0.0015 ± 0.013	0.0065 ± 0.026	-0.002 ± 0.0085	-0.0035 ± 0.013	-0.0155 ± 0.0064	-0.0135 ± 0.016	-0.007 ± 0.024	0.015 ± 0.018	0.0175 ± 0.042	-0.023 ± 0.0057	-0.0135 ± 0.00071
